The values below are quoted from earlier work in patent publication EP0687181B1, “USE OF THYMOSIN FOR TREATING HEPATITIS C IN NON-RESPONDERS TO INTERFERON TREATMENT” (ALPHA 1 BIOMEDICALS, INC., priority 1993, dated 2001).

For data set [1], the system named is influenza vaccine. Particulars: drug recipients.
The subject of data set [2] is HCV-related diseases. Particulars: in vivo.

Where no end group is shown, it is not given here.

Consider “Ac-SDAAVDTSSEITTKDLKEKKEVVEEAEN [Thymosin α-1]”, for which, in data set [1], the toxicity result is listed as “No clinical or biochemical toxicity”. With `Nc1nc2c(ncn2COCCO)c(=O)[nH]1` [acyclovir], the “effect on progression of HCV-related diseases” value in data set [2] is reported as “ineffective”.
